Results as given in ChEMBL document CHEMBL3885861, “Open TG-GATES”.

Species: Rattus norvegicus
Test: Open TG-GATES - Regimen: Single
Assay type: toxicity, organism-based, Sprague-Dawley
Parameters: regimen Single, gender Male, age 6 weeks
Settings: in vivo, po, 1 mg/kg, route gavage, dose level Low; for APTT / Bas / Eos / Fbg / Hb / Ht / Lym / MCH / MCHC / MCV / Mono / Neu / PT / Plat / RBC / Ret / WBC: tissue Blood; for KIDNEY_L / KIDNEY_R / KIDNEY_TOTAL: tissue Kidney; for LIVER: tissue Liver; for A/G / ALP / ALT / AST / BUN / CRE / Ca / Cl / DBIL / GLC / IP / K / LDH / Na / PL / RALB / TBIL / TC / TG / TP / gamma-GTP: tissue Plasma

## CN1C(C(=O)Nc2ccccn2)=C(O)c2sc(Cl)cc2S1(=O)=O [LORNOXICAM]
3 h
  TERMINAL_BW: 222.5 g
  APTT: 19.4 s
  Bas: 0.6%
  Eos: 1%
  Fbg: 219 mg/dL
  Hb: 13.5 g/dL
  Ht: 39.8%
  Lym: 78.2%
  MCH: 21.5 pg
  MCHC: 33.9%
  MCV: 63.4 fL
  Mono: 2.6%
  Neu: 17.4%
  PT: 11.6 s
  Plat: 128.4 x10_4/uL
  RBC: 627.6 x10_4/ul
  Ret: 7%
  WBC: 99.9 x10_2/uL
  KIDNEY_L: 1 g
  KIDNEY_R: 1 g
  KIDNEY_TOTAL: 2 g
  LIVER: 10 g
  A/G: 1.7
  ALP: 878.4 IU/L
  ALT: 40.6 IU/L
  AST: 71.8 IU/L
  BUN: 11 mg/dL
  CRE: 0.3 mg/dL
  Ca: 10.7 mg/dL
  Cl: 102.6 meq/L
  DBIL: 0.072 mg/dL
  GLC: 194.2 mg/dL
  IP: 9.2 mg/dL
  K: 3.7 meq/L
  LDH: 172 IU/L
  Na: 140.4 meq/L
  PL: 149.8 mg/dL
  RALB: 3.5 g/dL
  TBIL: 0.1 mg/dL
  TC: 81.8 mg/dL
  TG: 64.2 mg/dL
  TP: 5.6 g/dL
  gamma-GTP: 1.2 IU/L
6 h
  TERMINAL_BW: 223 g
  APTT: 19.9 s
  Bas: 0.8%
  Eos: 1%
  Fbg: 211 mg/dL
  Hb: 13.1 g/dL
  Ht: 38.9%
  Lym: 74.8%
  MCH: 20.8 pg
  MCHC: 33.8%
  MCV: 61.7 fL
  Mono: 3.2%
  Neu: 19.8%
  PT: 12.2 s
  Plat: 126.1 x10_4/uL
  RBC: 629.8 x10_4/ul
  Ret: 6.7%
  WBC: 117.6 x10_2/uL
  KIDNEY_L: 1 g
  KIDNEY_R: 1 g
  KIDNEY_TOTAL: 2 g
  LIVER: 9.3 g
  A/G: 1.7
  ALP: 908.8 IU/L
  ALT: 44.4 IU/L
  AST: 79.6 IU/L
  BUN: 11.2 mg/dL
  CRE: 0.3 mg/dL
  Ca: 10.6 mg/dL
  Cl: 104 meq/L
  DBIL: 0.074 mg/dL
  GLC: 190.2 mg/dL
  IP: 8.6 mg/dL
  K: 4 meq/L
  LDH: 184.8 IU/L
  Na: 140.6 meq/L
  PL: 134.8 mg/dL
  RALB: 3.5 g/dL
  TBIL: 0.1 mg/dL
  TC: 72.2 mg/dL
  TG: 61.8 mg/dL
  TP: 5.5 g/dL
  gamma-GTP: 1.2 IU/L
9 h
  TERMINAL_BW: 220.2 g
  APTT: 19.1 s
  Bas: 0.6%
  Eos: 0.8%
  Fbg: 220.4 mg/dL
  Hb: 13.5 g/dL
  Ht: 40.3%
  Lym: 75%
  MCH: 21.2 pg
  MCHC: 33.5%
  MCV: 63.3 fL
  Mono: 3.4%
  Neu: 20.4%
  PT: 12.2 s
  Plat: 119.8 x10_4/uL
  RBC: 636.4 x10_4/ul
  Ret: 7.4%
  WBC: 109.6 x10_2/uL
  KIDNEY_L: 1 g
  KIDNEY_R: 1 g
  KIDNEY_TOTAL: 2 g
  LIVER: 8.9 g
  A/G: 1.6
  ALP: 866.2 IU/L
  ALT: 37.8 IU/L
  AST: 68.6 IU/L
  BUN: 10.6 mg/dL
  CRE: 0.3 mg/dL
  Ca: 10.5 mg/dL
  Cl: 103 meq/L
  DBIL: 0.072 mg/dL
  GLC: 197.8 mg/dL
  IP: 9.1 mg/dL
  K: 4.1 meq/L
  LDH: 158.6 IU/L
  Na: 141 meq/L
  PL: 132.8 mg/dL
  RALB: 3.4 g/dL
  TBIL: 0.1 mg/dL
  TC: 73.2 mg/dL
  TG: 57.8 mg/dL
  TP: 5.5 g/dL
  gamma-GTP: 1.2 IU/L
24 h
  TERMINAL_BW: 238.6 g
  APTT: 19.3 s
  Bas: 0.4%
  Eos: 0.8%
  Fbg: 251 mg/dL
  Hb: 13 g/dL
  Ht: 38.9%
  Lym: 69.4%
  MCH: 21.3 pg
  MCHC: 33.4%
  MCV: 63.6 fL
  Mono: 3.2%
  Neu: 26%
  PT: 11.8 s
  Plat: 121.2 x10_4/uL
  RBC: 612.8 x10_4/ul
  Ret: 6.9%
  WBC: 134.5 x10_2/uL
  KIDNEY_L: 1 g
  KIDNEY_R: 1 g
  KIDNEY_TOTAL: 2 g
  LIVER: 11.4 g
  A/G: 1.5
  ALP: 822 IU/L
  ALT: 39.6 IU/L
  AST: 68.8 IU/L
  BUN: 14.8 mg/dL
  CRE: 0.4 mg/dL
  Ca: 10.8 mg/dL
  Cl: 104 meq/L
  DBIL: 0.098 mg/dL
  GLC: 203.6 mg/dL
  IP: 7.6 mg/dL
  K: 4.1 meq/L
  LDH: 190.4 IU/L
  Na: 141 meq/L
  PL: 145.2 mg/dL
  RALB: 3.2 g/dL
  TBIL: 0.2 mg/dL
  TC: 73.8 mg/dL
  TG: 100.2 mg/dL
  TP: 5.4 g/dL
  gamma-GTP: 1.4 IU/L
